From publication PMC11940764 (2025)

Columns and labels:
[1] = test system: poly(A)·poly(U) (RNA, polymer) A/U; test: fluorescence titration; CD (exciton-coupled ICD); details: fluorescence: TE buffer pH 8.0, dye 1 µM; CD: phosphate buffer 10 mM pH 7.5; no Kb given
poly(A) (RNA, polymer) A = test: fluorescence titration, site-independent model; details: TE buffer (Tris-HCl 10 mM, EDTA 1 mM) pH 8.0; dye 1 µM; unit not given

binding [1]: yes
Kb (poly(A) (RNA, polymer) A): 9.5 × 10^6
SMILES: COc1cc2c(/C=C3/Sc4ccccc4N3C)cc[n+](C)c2cc1OC
